Each molecule was assayed on γ-glutamyl carboxylation reaction (human Gas6 in Gas6-HEK293 cells) (assay: Inhibitory action on γ-glutamyl carboxylation reaction (secreted γ-glutamyl carboxylated Gas6 by ELISA)). Details: vitamin K2 100 nM, exposure 18 to 20 hours, ELISA absorbance at 620 nm, read-out: IC50 (50% inhibitory concentration for the γ-glutamyl carboxylation reaction).
Assay type: cell-based
Description: Measurement of Inhibitory Action on γ-Glutamyl Carboxylation Reaction
Cells were used that expressed Gas6 excreted outside the cells when subjected to γ-glutamyl carboxylation, and inhibitory action on γ-glutamyl carboxylation reaction was assessed by measuring the secreted amount of extracellular Gas6 by ELISA method.
(A) Preparation for Assay Plate Containing Solid-Phase Anti-Human Gas6 Antibody
Goat anti-human Gas6 antibody (R&D Systems, Inc.) was diluted to 1 μg/ml with Dulbecco's phosphate-buffered saline, and 40 μl aliquots thereof were dispensed into each well of a 384-well microplate. After immobilizing the antibody to the solid phase by allowing it to stand at 4° C. overnight or at room temperature for 2 hours or more, each well was washed three times with wash buffer (10 mM Tris-HCl pH 7.4, 150 mM sodium chloride, 0.05% Tween20). After removing the supernatant, 80 μl aliquots of a 1% aqueous solution of Block Ace (Dainippon Sumitomo Pharma) were dispensed into each well and allowed to react at room temperature for 1 hour or more.
(B) Exposure of Test Compounds to Cells Stably Expressing Human Gas6
Cells that stably express human Gas6 (Gas6-HEK293), which were prepared by inserting human Gas6 gene (inserted between SalI and NotI within multiple cloning sites of pCIneo expression vector) into HEK293 cells, were grown and sub-cultured using Dulbecco's modified Eagle's medium (DMEM) containing 10% fetal calf serum (FCS). On the day before ELISA measurement, the Gas6-HEK293 cells were detached with trypsin-EDTA, dispersed in DMEM containing 10% FCS, and disseminated into each well of a 384-well, collagen type I-coated plate (Becton-Dickinson) in 30 μl aliquots containing 1.0×10^4 cells each, followed by culturing for 3 to 4 hours at 5% CO2 and 37° C. 30 μl aliquots of DMEM containing test compound solutions, prepared at various concentrations by dissolving in DMSO, and vitamin K2 at 0.1% and 100 nM, respectively (indicating final concentrations in both cases) were added to each well followed by additionally culturing for 18 to 20 hours.
(C) Quantification of γ-Glutamyl Carboxylated Gas6 by ELISA and Calculation of 50% Inhibitory Concentrations of γ-Glutamyl Carboxylation Reaction
After removing the 1% Block Ace aqueous solution from the preliminarily prepared assay plates containing solid phase anti-human Gas6 antibody, the culture supernatant of Gas6-HEK293 cells exposed to the test compounds was collected and 40 μl aliquots were dispensed into each well followed by allowing to react at room temperature for 2 hours (Step 1). The culture supernatant was removed and each well was washed three times with wash buffer. Thereafter, the same washing procedure was carried out between Steps 2 and 3 and Steps 3 and 4. Subsequently, 40 μl aliquots of mouse anti-human […] antibody (American Diagnostica inc.), adjusted to 0.5 μg/ml with immunoreaction buffer (100 mM Tris-HCl pH 7.4, 0.05% Tween20, 0.1% Block Ace), were dispensed into each well and allowed to react at room temperature for 1 hour (Step 2). Next, 40 μl aliquots of alkaline phosphatase-conjugated anti-mouse IgG antibody adjusted to 1.0 μg/ml with immunoreaction buffer were dispensed into each well and allowed to react at room temperature for 1 hour (Step 3). 40 μl aliquots of BluePhos Microwell (KPL) were dispensed into each well, and after incubating at room temperature for 10 minutes (Step 4), 20 μl aliquots of 5% EDTA were added to each well to stop the color development reaction, followed by measurement of absorbance at 620 nm (Step 5). […]

SMILES	IC50
CC[C@H](NC(=O)c1nc2ccccc2nc1O)C(=O)N1CCC(Oc2ccc(F)cc2F)CC1 [Example 9, N-[(1S)-1-{[4-(2,4-Difluorophenoxy)piperidin-1-yl]carbonyl}propyl]-3-hydroxyquinoxaline-2-carboxamide]	< 0.6 nM
CC(C)[C@H](NC(=O)c1nc2ccccc2nc1O)C(=O)N1CCC(Sc2ccc(F)cc2)CC1 [Example 45, N-[(1S)-1-({4-[(4-Fluorophenyl)thio]piperidin-1-yl}carbonyl)-2-methylpropyl]-3-hydroxyquinoxaline-2-carboxamide]	1.3 nM
CC(C)[C@H](NC(=O)c1nc2ccc(F)cc2nc1O)C(=O)N1CCC(Oc2ccc(F)cc2)CC1 [Example 74, N-[(1S)-1-{[4-(4-Fluorophenoxy)piperidin-1-yl]carbonyl}-2-methylpropyl]-6-fluoro-3-hydroxyquinoxaline-2-carboxamide]	5.5 nM
CC(C)[C@H](NC(=O)c1nc2ccccc2nc1O)C(=O)N1CCC(Oc2ccc(Cl)cc2)CC1 [Example 15, N-[(1S)-1-{[4-(4-Chlorophenoxy)piperidin-1-yl]carbonyl}-2-methylpropyl]-3-hydroxyquinoxaline-2-carboxamide]	18 nM
CC(C)[C@H](NC(=O)c1nc2ccccc2nc1O)C(=O)N1CCC(C(=O)c2ccc(F)cc2)CC1 [Example 61, N-[(1S)-1-{[4-(4-Fluorobenzoyl)piperidin-1-yl]carbonyl}-2-methylpropyl]-3-hydroxyquinoxaline-2-carboxamide]	5.1 nM
COc1ccc(OC2CCN(C(=O)[C@@H](NC(=O)c3nc4ccccc4nc3O)C(C)C)CC2)cn1 [Example 86, 3-Hydroxy-N-[(1S)-1-({4-[(6-methoxypyridin-3-yl)oxy]piperidin-1-yl}carbonyl)-2-methylpropyl]quinoxaline-2-carboxamide]	0.7 nM
C[C@H](NC(=O)c1nc2ccccc2nc1O)C(=O)N1CCC(Oc2ccc(F)cc2F)CC1 [Example 3, N-{(1S)-2-[4-(2,4-Difluorophenoxy)piperidin-1-yl]-1-methyl-2-oxoethyl}-3-hydroxyquinoxaline-2-carboxamide]	3.5 nM
CC(C)[C@H](NC(=O)c1nc2ccccc2nc1O)C(=O)N1CCC(N(C)c2ccc(F)cn2)CC1 [Example 35, N-[(1S)-1-({4-[(5-Fluoropyridin-2-yl)(methyl)amino]piperidin-1-yl}carbonyl)-2-methylpropyl]-3-hydroxyquinoxaline-2-carboxamide]	< 0.6 nM

Source: patent publication US20110053933A1, “HYDROXYQUINOXALINECARBOXAMIDE DERIVATIVE” (DAIICHI SANKYO COMPANY, LIMITED, priority 2008, published 2011)
